{"source": "patent US20230417740A1", "about": "“TISSUE-MIMICKING HYDROGEL COMPOSITIONS FOR BIOFABRICATION” (Wake Forest University Health Sciences, priority 2014, published 2023)", "system": "bioprinted liver organoids", "format": "cell-based", "details": "20 mM NAC with 10 mM APAP, general trend of the data"}
{"compound": "CC(=O)N[C@@H](CS)C(=O)O", "note": "[NAC, N-acetyl-L-cysteine]", "values": [{"measurement": "rescue of liver organoids from APAP insult", "result": "can be rescued"}]}
